Laboratory results published in patent US20230121086A1, “RORgT INHIBITOR, PREPARATION METHOD THEREOF AND USE THEREOF” (SUNSHINE LAKE PHARMA CO., LTD., priority 2020, published 2023).

target: T1, RORγt (Homo sapiens, UniProt P51449); assay: Fluorescence resonance energy transfer (FRET) test, inhibitory activity of RORγt; type: biochemical; conditions: FRET, B-RORγt LBD / Biotin-SRC1; read-out: IC50
T1 construct: […]
T1 sequence (P51449 269-508 limits assumed): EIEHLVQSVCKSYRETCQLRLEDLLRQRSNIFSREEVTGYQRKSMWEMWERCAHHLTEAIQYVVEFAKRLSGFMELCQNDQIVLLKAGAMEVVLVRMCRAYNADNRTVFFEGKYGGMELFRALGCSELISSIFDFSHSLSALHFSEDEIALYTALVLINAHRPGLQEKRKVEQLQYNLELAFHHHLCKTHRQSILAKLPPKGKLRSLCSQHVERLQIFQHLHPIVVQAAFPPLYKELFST

IC50 [nM] | Structure (SMILES)
30 | CCS(=O)(=O)c1ccc([C@H](CC#N)NC(=O)c2ccc(N3C[C@@H](Oc4ccc(OC(C)C)nc4)C[C@H]3COC(F)F)cc2)cc1 [Example 20, N-((S)-2-cyano-1-(4-(ethylsulfonyl)phenyl)ethyl)-4-((2S,4S)-2-((difluoromethoxy)methyl)-4-((6-isopropoxypyridin-3-yl)oxy)pyrrolidin-1-yl)benzamide]
2 | CCS(=O)(=O)c1ccc([C@H](CC#N)NC(=O)c2ccc(N3C[C@@H](Oc4ccc(Cl)cc4)C[C@H]3COC(F)F)cc2)cc1 [Example 21, 4-((2S)-4-(4-chlorophenoxy)-2-((difluoromethoxy)methyl)pyrrolidin-1-yl)-N-((S)-2-cyano-1-(4-(ethylsulfonyl)phenyl)ethyl)benzamide]
19 | CCS(=O)(=O)c1ccc([C@H](CC#N)NC(=O)c2ccc(N3C[C@@H](Oc4ccc(C#N)cc4)C[C@H]3COC(F)F)cc2)cc1 [Example 24, N-((S)-2-cyano-1-(4-(ethylsulfonyl)phenyl)ethyl)-4-((2S,4S)-4-(4-cyanophenoxy)-2-((difluoromethoxy)methyl)pyrrolidin-1-yl)benzamide]
66 | CCS(=O)(=O)c1ccc([C@H](CC#N)NC(=O)c2ccc(N3C[C@@H](Oc4ccc(C(N)=O)cc4)C[C@H]3COC(F)F)cc2)cc1 [Example 25, 4-((2S,4S)-4-(4-carbamoylphenoxy)-2-((difluoromethoxy)methyl)pyrrolidin-1-yl)-N-((S)-2-cyano-1-(4-(ethylsulfonyl)phenyl)ethyl)benzamide]
23 | CCS(=O)(=O)c1ccc([C@H](CC#N)NC(=O)c2ccc(N3C[C@@H](Oc4ccc(C(O)(C(F)(F)F)C(F)(F)F)cc4)C[C@H]3COC(F)F)cc2)cc1 [Example 26, N-((S)-2-cyano-1-(4-(ethylsulfonyl)phenyl)ethyl)-4-((2S,4S)-2-((difluoromethoxy)methyl)-4-(4-(1,1,1,3,3,3-hexafluoro-2-hydroxypropan-2-yl)phenoxy)pyrrolidin-1-yl)benzamide]
24 | CCS(=O)(=O)c1ccc([C@H](CC#N)NC(=O)c2ccc(N3C[C@@H](Oc4ccc(F)cc4)C[C@H]3COC(F)F)cc2)cc1 [Example 28, N-((S)-2-cyano-1-(4-(ethylsulfonyl)phenyl)ethyl)-4-((2S,4S)-2-((difluoromethoxy)methyl)-4-(4-fluorophenoxy)pyrrolidin-1-yl)benzamide]
59.8 | CCS(=O)(=O)c1ccc([C@H](CC#N)NC(=O)c2ccc(N3C[C@H](NCC4CCC(F)(F)CC4)C[C@H]3COC(F)F)cc2)cc1 [Example 31]
61.1 | CCS(=O)(=O)c1ccc([C@H](CC#N)NC(=O)c2ccc(N3C[C@H](N(C)CC4CCC(F)(F)CC4)C[C@H]3COC(F)F)cc2)cc1 [Example 32]
67.5 | CCS(=O)(=O)c1ccc([C@H](CC#N)NC(=O)c2ccc(N3C[C@@H](OCc4ccc(OC(F)(F)F)cc4)C[C@H]3COC(F)F)cc2)cc1 [Example 39, N—((S)-2-cyano-1-(4-(ethylsulfonyl)phenyl)ethyl)-4-((2S,4S)-2-((difluoromethoxy)methyl)-4-((4-(trifluoromethoxy)benzyl)oxy)pyrrolidin-1-yl)benzamide]
21 | CCS(=O)(=O)c1ccc([C@H](CC#N)NC(=O)c2ccc(N3C[C@@H](Oc4ccc(C5CC5)cn4)C[C@H]3COC(F)F)cc2)cc1 [Example 40, N—((S)-2-cyano-1-(4-(ethylsulfonyl)phenyl)ethyl)-4-((2S,4S)-4-((5-cyclopropylpyridin-2-yl)oxy)-2-((difluoromethoxy)methyl)pyrrolidin-1-yl)benzamide]
17 | CCS(=O)(=O)c1ccc([C@H](CC#N)NC(=O)c2ccc(N3C[C@@H](Oc4ccc(OC)cn4)C[C@H]3COC(F)F)cc2)cc1 [Example 41, N—((S)-2-cyano-1-(4-(ethylsulfonyl)phenyl)ethyl)-4-((2S,4S)-2-((difluoromethoxy)methyl)-4-((5-methoxypyridin-2-yl)oxy)pyrrolidin-1-yl)benzamide]
43 | CCS(=O)(=O)c1ccc([C@H](CC#N)NC(=O)c2ccc(N3C[C@@H](Oc4ccc(-n5cnc(C)c5)cc4)C[C@H]3COC(F)F)cc2)cc1 [Example 45, N—((S)-2-cyano-1-(4-(ethylsulfonyl)phenyl)ethyl)-4-((2S,4S)-2-((difluoromethoxy)methyl)-4-(4-(4-methyl-1H-imidazol-1-yl)phenoxy)pyrrolidin-1-yl)benzamide]
22 | CS(=O)(=O)c1ccc([C@H](CC#N)NC(=O)c2ccc(N3C[C@@H](Oc4ccc(C(F)(F)F)cc4)C[C@H]3COC(F)F)cc2)cc1 [Example 62, N-((S)-2-cyano-1-(4-(methylsulfonyl)phenyl)ethyl)-4-((2S,4S)-2-((difluoromethoxy)methyl)-4-(4-(trifluoromethyl)phenoxy)pyrrolidin-1-yl)benzamide]
33 | CCS(=O)(=O)c1ccc([C@H](CC#N)NC(=O)c2ccc(N3C[C@@H](Oc4ccc(C(F)(F)F)cc4)C[C@H]3COC(F)F)c(Cl)c2)cc1 [Example 66, 3-chloro-N-((S)-2-cyano-1-(4-(ethylsulfonyl)phenyl)ethyl)-4-((2S,4S)-2-((difluoromethoxy)methyl)-4-(4-(trifluoromethyl)phenoxy)pyrrolidin-1-yl)benzamide]
10 | CCS(=O)(=O)c1ccc([C@H](CC#N)NC(=O)c2ccc(N3C[C@@H](Oc4ccc(C(F)(F)F)cc4)C[C@H]3CCOC(F)F)cc2)cc1 [Example 75, N—((S)-2-cyano-1-(4-(ethylsulfonyl)phenyl)ethyl)-4-((2R,4S)-2-(2-(difluoromethoxy)ethyl)-4-(4-(trifluoromethyl)phenoxy)pyrrolidin-1-yl)benzamide]
18 | CCS(=O)(=O)c1ccc([C@H](CC#N)NC(=O)c2ccc(N3C[C@@H](Oc4ccc(C(F)(F)F)cc4)C[C@H]3CCOC(F)(F)F)cc2)cc1 [Example 76, N—((S)-2-cyano-1-(4-(ethylsulfonyl)phenyl)ethyl)-4-((2R,4S)-2-(2-(trifluoromethoxy)ethyl)-4-(4-(trifluoromethyl)phenoxy)pyrrolidin-1-yl)benzamide]
7 | CCOC[C@@H]1C[C@H](Oc2ccc(C(F)(F)F)cc2)CN1c1ccc(C(=O)N[C@H](CC#N)c2ccc(S(=O)(=O)CC)cc2)cc1 [Example 77, N—((R)-2-cyano-1-(4-(ethylsulfonyl)phenyl)ethyl)-4-((2S,4S)-2-(ethoxymethyl)-4-(4-(trifluoromethyl)phenoxy)-1-pyrrolidine)benzamide]
12 | CCS(=O)(=O)c1ccc([C@H](CC#N)NC(=O)c2ccc(N3C[C@@H](Oc4ccc5c(c4)OC(F)(F)O5)C[C@H]3COC(F)F)cc2)cc1 [Example 78, N—((S)-2-cyano-1-(4-(ethylsulfonyl)phenyl)ethyl)-4-((2S,4S)-4-((2,2-difluorobenzo[d][1,3]dioxol-5-yl)oxy)-2-((difluoromethoxy)methyl)pyrrolidin-1-yl)-benzamide]
14 | CCS(=O)(=O)c1ccc([C@H](CC#N)NC(=O)c2ccc(N3C[C@@H](OC4CCC(C(F)(F)F)CC4)C[C@H]3COC(F)F)cc2)cc1 (stereo partly drawn) [Example 89, N—((S)-2-cyano-1-(4-(ethylsulfonyl)phenyl)ethyl)-4-((2S)-2-((difluoromethoxy)methyl)-4-((4-(trifluoromethyl)cyclohexyl)oxy)pyrrolidin-1-yl)benzamide]
9 | CCS(=O)(=O)c1ccc([C@H](COCC(=O)O)NC(=O)c2ccc(N3C[C@@H](Oc4ccc(C(F)(F)F)cc4)C[C@H]3COC(F)F)cc2)cc1 [Example 90, 2-((R)-2-(4-((2S,4S)-2-((difluoromethoxy)methyl)-4-(4-(trifluoromethyl)phenoxy)pyrrolidin-1-yl)benzoylamino)-2-(4-(ethylsulfonyl)phenyl)ethoxy)acetic Acid]
21 | CCS(=O)(=O)c1ccc([C@H](CC(=O)O)NC(=O)c2ccc(N3C[C@@H](Oc4ccc(C(F)(F)F)cc4)C[C@H]3COC(F)F)cc2)cc1 [Example 92, (S)-3-(4-((2S,4S)-2-((difluoromethoxy)methyl)-4-(4-(trifluoromethyl)phenoxy)pyrrolidin-1-yl)benzoylamino)-3-(4-(ethylsulfonyl)phenyl)propionic Acid]
13 | CCS(=O)(=O)c1ccc([C@H](CC(=O)NO)NC(=O)c2ccc(N3C[C@@H](Oc4ccc(C(F)(F)F)cc4)C[C@H]3COC(F)F)cc2)cc1 [Example 93]
31 | CCS(=O)(=O)c1ccc([C@H](CC(=O)NC)NC(=O)c2ccc(N3C[C@@H](Oc4ccc(C(F)(F)F)cc4)C[C@H]3COC(F)F)cc2)cc1 [Example 94]
77 | CCS(=O)(=O)c1ccc([C@H](CC(=O)N(C)C)NC(=O)c2ccc(N3C[C@@H](Oc4ccc(C(F)(F)F)cc4)C[C@H]3COC(F)F)cc2)cc1 [Example 95]
31 | CCS(=O)(=O)c1ccc([C@H](CC(=O)OC)NC(=O)c2ccc(N3C[C@@H](Oc4ccc(C(F)(F)F)cc4)C[C@H]3COC(F)(F)F)cc2)cc1 [Example 96, methyl (S)-3-(4-(ethylsulfonyl)phenyl)-3-(4-((2S,4S)-2-((trifluoromethoxy)methyl)-4-(4-(trifluoromethyl)phenoxy)pyrrolidin-1-yl)benzamido)propionate]
21 | CCS(=O)(=O)c1ccc([C@H](CC(=O)OC)NC(=O)c2ccc(N3C[C@@H](Oc4ccc(C(F)(F)F)cc4)C[C@H]3COC(F)F)cc2)cc1 [Example 97, methyl (S)-3-(4-((2S,4S)-2-((difluoromethoxy)methyl)-4-(4-(trifluoromethyl)phenoxy)pyrrolidin-1-yl)benzoylamino)-3-(4-(ethylsulfonyl)phenyl)propionate]
21 | CCS(=O)(=O)c1ccc([C@H](CC(N)=O)NC(=O)c2ccc(N3C[C@@H](Oc4ccc(C(F)(F)F)cc4)C[C@H]3COC(F)F)cc2)cc1 [Example 98, N—((S)-3-amino-1-(4-(ethylsulfonyl)phenyl)-3-oxopropyl)-4-((2S,4S)-2-((difluoromethoxy)methyl)-4-(4-(trifluoromethyl)phenoxy)pyrrolidin-1-yl)benzamide]
